How the values were obtained:
[1] = background art; cited from earlier work
[2] = Solubility in capsule fill solvents; format: physicochemical; settings: for Dye Solubility: 4320 min
Experimental: The encapsulation process requires the color-forming ligand be dissolved in a solvent or mixed solvents, because of the nature of the procedure. Formation of a microcapsule shell as by condensation of urea or melamine with an aldehyde such as formaldehyde or mixtures of aldehydes to form the capsule shell is carried out in an acidic aqueous medium and the color-former solution must be insoluble and unreactive to these reagents for the encapsulation to proceed. Solvents commonly used include tributyl phosphate, diethyl phthalate, and cyclohexane. […] As mentioned above, solubility of yellow color-formers exemplified by structure I in nonaqueous solvents such as those used in the encapsulation process may be increased by substituting alkyl, aryl, aralkyl, alkenyl, or such groups for the hydrogens on the various positions available in the structure I above.
(§1) This color observed on the CF sheet was yellow. […] Solubility in a solvent blend of tributyl phosphate, diethyl phthalate and cyclohexane (capsule solvents for preparing carbonless copy-paper) was >9% by weight. Thus the ligand is eminently suitable for encapsulation. The ligand is not volatile at 71 ° C. overnight.
Solubility in a solvent blend of tributyl phosphate, diethyl phthalate and cyclohexane (capsule solvents for preparing carbonless copy-paper) was 3% by weight. Thus the ligand is eminently suitable for encapsulation. The ligand is not volatile at 71 ° C. overnight.
*THE SOLUBILITY WAS DEEMED PREFERABLE IF IT WAS GREATER THAN 2% IN THE
FILL MIX AT ROOM TEMPERATURE FOR 3 DAYS. THE FILL MIX COMPRISED
TRIBUTYLPHOSPHATE (26.5%); DIETHYLPHTHALATE (17.6%); AND CYCLOHEXANE

[3] = Imaging of CB sheet with encapsulated color-former on Ni-coated CF sheet; format: physicochemical; settings: carbonless paper capsules
Experimental: A precondensate solution was prepared comprising 192 g of formalin, 0.63 g of potassium tetraborate, 72 g of urea, and 328 g of soft water. The formalin was 37% formaldehyde and was added to a 1-liter flask equipped with a stirrer and heating mantle. The potassium tetraborate and urea were then added, and the mixture was heated to 70° C. The reaction was maintained at that temperature for 2.5-3.0 hr. The reaction mixture was then diluted with the water and allowed to cool. The precondensate solution, with about 24% solids, was then ready for use in the encapsulation process.
The precondensate and fill (ethanediimidic acid bis[hydrazide] and carrier or fill solvents) were combined to make capsules according to the following procedure. Sodium chloride (29.54 g) was added to the stirred precondensate solution and the temperature of the solution was adjusted to 20° C. The fill material (215 g) was added and full agitation was begun. After 5 minutes of stirring, 10% hydrochloric acid solution was added over 5 minutes in an amount such that the final pH of the reaction mixture was about 2.8. The reaction mixture was stirred for another 12 minutes. More of the 10% hydrochloric acid solution was added over a period of 12 minutes, in an amount such that the final pH of the solution was about […]. The reaction mixture was stirred at 20° C. for 1 hr, and then at 60° C. for 1-3 hr. The acidic solution was allowed to cool and adjusted to a pH of 7 by addition of concentrated ammonium hydroxide solution (28%). The capsule slurry could then be stored for later use.
The capsule slurry (10 g) was added to 65 g of a 1.5% aqueous sodium alginate solution. The mixture was applied to a coated paper using a bar coater with a 3 mil gap. The coating was allowed to dry at room temperature.
A 2% solution of the compound 1 in the capsule fill solvent of diethyl phthalate, tributyl phosphate, and cyclohexane was encapsulated by the procedure described in Experiment 5 above. A coating mixture of 10.0 g of capsule slurry, 2.5 g of Dow-620 butadiene-styrene latex, and 62.5 g of 1.5% sodium alginate slurry was coated onto paper by the draw down procedure described above.
A 7.5% solution comprising 5.45% N-(5-octanoylamido-2-metylpentyl)dithiooxamide/N-(5-octanoylamido-4-methylpentyl)dithiooxamide (G') mixture and 2.05% N,N'-di(5-octanoylamido-2-methylpentyl)dithiooxamide/N-(5-octanoylamido-2- methylpentyl)-N'-(5-octanoylamido-4-methylpentyl)dithiooxamide/N,N'-(5-octanoylamido-2-methylpentyl)dithiooxamide (G) mixture in the fill solvent mixture of diethyl phthalate, tributyl phosphate, and cyclohexanone was encapsulated by the procedure described above. A coating mixture of 10.0 g of capsule slurry, 2.5 g of Dow 620 styrene-butadiene latex, and 62.5 g of 1.5% sodium alginate solution was coated onto paper by the draw down procedure described in Experiment 5 above.
A blend was prepared of 10 g of the capsule slurry containing compound 1, with 10 g of capsule slurry containing 5.45% N-(5-octanoylamido-2-methylpentyl)dithiooxamide/N-(5-octanoylamido-4-methylpentyl)dithiooxamide (G') mixture and 2.05% N,N'-di(5-octanoylamido-2-methylpentyl)dithiooxamide/N-(5-octanoylamido-2- methylpentyl)-N'-(5-octanoylamido-4-methylpentyl)dithiooxamide/N,N'-di(5-octanoylamido-4-methylpentyl)dithiooxamide (G) mixture. […]

[4] = Color (Hunter coordinates) of Ni complex, swabbed on Ni-coated receptor (CF) sheet; format: physicochemical; design: key to Hunter coordinate a / Hunter Coordinates a: Hunter a: +a red, -a green; key to Hunter coordinate b / Hunter Coordinates b: Hunter b: +b yellow, -b blue; settings: for Chroma: C=(a^2 +b^2)^1/2; for Chroma / Image Color / Hunter Coordinates L / Hunter Coordinates a / Hunter Coordinates b: Ni(II) complex; for Chroma / Image Color: swab concn. 1% (Table 2); for Hunter Coordinates L / Hunter Coordinates a / Hunter Coordinates b: swab concn. 1%, 45°/0° reflectance, illuminant C (Table 2)
Experimental: In general, the colors of the complexes, as listed in Table 2 and Experiments 4, 6, and 7 below, were determined by preparing a 1% solution of the color-former or mixture of color-formers in an appropriate solvent. Unless otherwise indicated, the solvent was composed of a mixture of tributyl phosphate (26.5%), diethyl phthalate (17.6%), and cyclohexane (55.9%). The images were formed by applying two stripes of the solution to a substrate coated with a Ni^2+ coated receptor sheet using a cotton tipped applicator swab. Rapid and complete development of the image was achieved by passing the sheet through a hot shoe adjusted to 102° C., making a revolution every 10 seconds. The visually observed colors were measured and recorded.
One method of color measurement is to determine the color's position in color space. One color space system is the Hunter System; see F. W. Billmeyer, Jr., and M. Saltzman, Principles of Color Technology; John Wiley & Sons; New York, N.Y.; Ch. 2 & 3, 1981. In this system three mutually perpendicular axes (L, a, and b) are needed to define a color. "L" (+z axis) represents the lightness or darkness of the image; "a" (x axis) represents the amount of red or green (+a is red, -a is green); and "b" (y axis) represents the amount of yellow or blue (+b is yellow, -b is blue). By measuring a material's L, a, and b values, the color of one sample can be compared with that of other samples. Another value used in the Hunter System is Chroma (C). Chroma is defined by the equation [C=(a^2 +b^2)^1/2 ] and represents the distance of the image coordinates from the origin. The greater the Chroma, the more intense the image. Chroma is used to compare images cf the same hue. Because the color of a sample is also dependent upon the color temperature of the illuminating source, the angle at which the sample is illuminated, the angle at which the illumination is reflected, and the angle of the retina illuminated, these all need to be specified. Many instruments have been developed to record these values. One such instrument is the HunterLab LabScan II. This instrument is capable of automatically determining the L, a, and b values for a given sample, and was used for the following examples.
The L, a, and b color coordinates of the more uniform stripe were measured for 45°/0° reflectance on a HunterLab LabScan II, secondary observer, using illuminant C. The observed (image) color and the Hunter coordinates for Ni^2+ complexes of the yellow color-formers of this invention are given in Table 2.
A 1% solution of the condensation product in the encapsulation fill mix was swabbed onto a carbonless paper CF sheet (sold by the 3M Co. St. Paul, Minn.) with a cotton swab. The reflectance spectra had Hunter coordinates of: […]

[5] = Color formation with zinc salts (zinc rosinate); format: physicochemical
Experimental: as §1
This color observed on the CF sheet was yellow.

[6] = Volatility: transfer from simulated donor sheet to receptor sheet; format: physicochemical; settings: 71 ° C. overnight
Source text: The method utilized in the experiments to both define and evaluate the level of volatility was as follows. A single sheet piece of Grade #10 (20×12 cm) cheesecloth (AF & F., Item No. 588033, American Fiber and Finishing, Inc., Burlington, Mass.) was placed between a simulated donor sheet and a receptor sheet of a carbonless paper construction. The simulated donor sheet comprised a sheet of paper saturated with color-former of structure I, which was used to simulate a CB sheet with ruptured capsules. Pressure was then applied for 24 hours by placing 9 pounds of paper on top of the sheets, to simulate storage conditions of the paper packages. The formation of color on the receptor sheet, due to transfer of volatile color-former thereto, was used as an indication that the particular color-former was less than optimally desirable for carbonless paper constructions, i.e., was volatile. A compound was considered generally to be nonvolatile, within the meaning of the term as used herein to define the present invention and thus to define color-formers most acceptable for use in carbonless image transfer arrangements, if no color was formed after the simulated test was run for about 24 hours at 25° C. In some instances, if no color was formed after storage at room temperature (25° C.), successively higher temperatures were used, as for example 49° C., 60° C., and 71° C. […]

[7] = Stability in concentrated hydrochloric acid; format: physicochemical
[8] = 1% solution in encapsulation fill mix swabbed onto 3M CF sheet (Experiments 2, 3)

SMILES | image color with metal [1] | solubility in encapsulation / capsule solvents (in words) [2] | Dye Solubility [2] | color developed upon imaging [3] | Chroma [4] | Image Color [4] | Hunter Coordinates L [4] | Hunter Coordinates a [4] | Hunter Coordinates b [4] | color formation when reacted with zinc rosinate [5] | Solubility in a solvent blend of tributyl phosphate, diethyl phthalate and cyclohexane [2] | volatility [6] | Hunter coordinate L [4, 8] | Hunter coordinate a [4, 8] | Hunter coordinate b [4, 8] | color observed on the CF sheet ([4]; 1% solution swabbed (Experiments 2, 3)) | stability in concentrated hydrochloric acid [7]
S=C(NCc1ccccc1)C(=S)NCc1ccccc1 [H, N,N'-di(benzyl)dithiooxamide] | blue-purple |  |  |  |  |  |  |  |  |  |  |  |  |  |  |  | 
NC(=NN=Cc1ccccc1O)C(N)=NN=Cc1ccccc1O [Compound 9, Ethanediimidic acid bis[(2-hydroxyphenylmethylene)hydrazide]] |  | too low in the solvent blend used in many carbonless paper capsules | < 2.0% | weak and often unacceptable | 40.7 | Yellow | 84.5 | -9.7 | 39.5 |  |  |  |  |  |  |  | 
C=CCc1cccc(C=NN=C(N)C(N)=NN=Cc2cccc(CC=C)c2O)c1O [Compound 16, ethanediimidic acid bis[(3-allylsalicylidene)hydrazide]] |  | good solubility in capsule solvents | > 3.0% |  | 41.6 | Yellow | 82.5 | -6.6 | 41.0 | does not form color | 3 % by weight | not volatile | 82.5 | -6.64 | 41.0 | yellow | stable

From patent US5204311A, “Ethanediimidic acid bis[(arylalkylidene)hydrazide] color-formers” (Minnesota Mining and Manufacturing Company, priority 1991, dated 1993)
